Measured values taken from publication PMC4086741 (Molecular Pharmaceutics, 2014).

Legend:
P-gp = P-gp (Homo sapiens, UniProt P08183); test: Calcein-AM transport; settings: P-gp-overexpressing KB-V1 cells, probe calcein-AM (0.5 μg/mL)
ABCG2 = target: T1, ABCG2 (Homo sapiens, UniProt Q9UNQ0); test: Mitoxantrone transport; settings: ABCG2-overexpressing MCF7-FLV1000 cells, probe mitoxantrone (5 μM)
T1 sequence (Q9UNQ0 1-655): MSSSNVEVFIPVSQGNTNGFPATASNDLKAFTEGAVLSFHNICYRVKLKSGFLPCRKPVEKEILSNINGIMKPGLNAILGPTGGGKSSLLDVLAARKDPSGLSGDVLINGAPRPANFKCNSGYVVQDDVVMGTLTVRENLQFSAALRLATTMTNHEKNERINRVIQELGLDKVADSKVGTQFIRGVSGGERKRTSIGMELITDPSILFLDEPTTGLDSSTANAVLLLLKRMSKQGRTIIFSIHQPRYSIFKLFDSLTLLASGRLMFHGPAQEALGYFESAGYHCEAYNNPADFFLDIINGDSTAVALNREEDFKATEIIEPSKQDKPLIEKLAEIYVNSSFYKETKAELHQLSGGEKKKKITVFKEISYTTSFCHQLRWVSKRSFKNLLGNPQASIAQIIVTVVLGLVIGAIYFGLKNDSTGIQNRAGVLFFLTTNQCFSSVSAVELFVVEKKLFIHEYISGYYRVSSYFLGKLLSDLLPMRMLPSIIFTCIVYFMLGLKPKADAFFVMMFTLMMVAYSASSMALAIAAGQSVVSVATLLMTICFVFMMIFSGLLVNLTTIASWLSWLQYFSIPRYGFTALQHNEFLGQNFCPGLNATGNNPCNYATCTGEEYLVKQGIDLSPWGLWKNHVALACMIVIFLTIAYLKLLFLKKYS

Sequence of P-gp (P08183 whole entry): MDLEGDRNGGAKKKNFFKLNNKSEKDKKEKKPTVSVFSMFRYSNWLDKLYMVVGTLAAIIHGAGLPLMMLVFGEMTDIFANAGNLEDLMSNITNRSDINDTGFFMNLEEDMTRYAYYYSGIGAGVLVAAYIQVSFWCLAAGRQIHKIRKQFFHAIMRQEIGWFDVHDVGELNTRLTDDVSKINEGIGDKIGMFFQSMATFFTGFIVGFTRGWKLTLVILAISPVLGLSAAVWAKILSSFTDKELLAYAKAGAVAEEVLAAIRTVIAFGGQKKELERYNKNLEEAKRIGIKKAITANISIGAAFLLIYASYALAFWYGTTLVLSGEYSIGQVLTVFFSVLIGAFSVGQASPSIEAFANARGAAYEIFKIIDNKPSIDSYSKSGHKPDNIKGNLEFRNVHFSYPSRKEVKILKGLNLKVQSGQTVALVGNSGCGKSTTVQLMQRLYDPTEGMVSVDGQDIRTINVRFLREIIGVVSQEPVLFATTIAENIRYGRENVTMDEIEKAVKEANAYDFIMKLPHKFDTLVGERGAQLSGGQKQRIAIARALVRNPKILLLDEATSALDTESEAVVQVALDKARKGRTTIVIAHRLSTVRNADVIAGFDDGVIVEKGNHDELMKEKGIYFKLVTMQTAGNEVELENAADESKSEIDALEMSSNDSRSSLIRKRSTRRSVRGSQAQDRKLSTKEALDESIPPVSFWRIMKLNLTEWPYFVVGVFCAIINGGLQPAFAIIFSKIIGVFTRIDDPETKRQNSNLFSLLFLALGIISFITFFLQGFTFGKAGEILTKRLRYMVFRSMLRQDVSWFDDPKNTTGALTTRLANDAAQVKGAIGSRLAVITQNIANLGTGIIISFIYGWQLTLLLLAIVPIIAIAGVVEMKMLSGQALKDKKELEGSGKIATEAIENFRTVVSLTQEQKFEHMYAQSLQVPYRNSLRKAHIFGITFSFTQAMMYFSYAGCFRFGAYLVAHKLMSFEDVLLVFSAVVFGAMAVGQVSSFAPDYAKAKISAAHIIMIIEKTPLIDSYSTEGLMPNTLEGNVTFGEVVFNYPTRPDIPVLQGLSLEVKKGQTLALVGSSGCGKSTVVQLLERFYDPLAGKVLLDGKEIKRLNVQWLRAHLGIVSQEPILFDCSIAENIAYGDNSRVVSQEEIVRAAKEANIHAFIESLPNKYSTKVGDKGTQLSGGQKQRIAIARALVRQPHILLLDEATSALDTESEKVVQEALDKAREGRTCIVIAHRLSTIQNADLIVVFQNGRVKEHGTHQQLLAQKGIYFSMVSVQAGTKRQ

**Q.** For Cc1cn(-c2cc(NC(=O)c3ccc(C)c(Nc4nccc(-c5cccnc5)n4)c3)cc(C(F)(F)F)c2)cn1 [nilotinib, Nilotinib], which IC20 (P-gp) is on record?
**A.** 1160 nM

**Q.** And the IC20 (ABCG2)?
**A.** 240 nM
